Experimental data published in patent US12492188B2, “1H-benzo[D]imidazole derivatives as TLR9 inhibitors for the treatment of fibrosis” (BRISTOL-MYERS SQUIBB COMPANY, priority 2020, dated 2025).
Read-outs that look alike come from different tables or passages of the source.

Columns and labels:
Format in all cases: cell-based
human TLR9 = target: T1, human TLR9 (Homo sapiens, UniProt Q9NR96); test: TLR9 inhibition reporter assay (HEK-Blue cells, secreted embryonic alkaline phosphatase reporter)
T1 construct: host or cells: HEK-Blue cells (HEK293-derived reporter line)
T1 sequence (Q9NR96 26-1032): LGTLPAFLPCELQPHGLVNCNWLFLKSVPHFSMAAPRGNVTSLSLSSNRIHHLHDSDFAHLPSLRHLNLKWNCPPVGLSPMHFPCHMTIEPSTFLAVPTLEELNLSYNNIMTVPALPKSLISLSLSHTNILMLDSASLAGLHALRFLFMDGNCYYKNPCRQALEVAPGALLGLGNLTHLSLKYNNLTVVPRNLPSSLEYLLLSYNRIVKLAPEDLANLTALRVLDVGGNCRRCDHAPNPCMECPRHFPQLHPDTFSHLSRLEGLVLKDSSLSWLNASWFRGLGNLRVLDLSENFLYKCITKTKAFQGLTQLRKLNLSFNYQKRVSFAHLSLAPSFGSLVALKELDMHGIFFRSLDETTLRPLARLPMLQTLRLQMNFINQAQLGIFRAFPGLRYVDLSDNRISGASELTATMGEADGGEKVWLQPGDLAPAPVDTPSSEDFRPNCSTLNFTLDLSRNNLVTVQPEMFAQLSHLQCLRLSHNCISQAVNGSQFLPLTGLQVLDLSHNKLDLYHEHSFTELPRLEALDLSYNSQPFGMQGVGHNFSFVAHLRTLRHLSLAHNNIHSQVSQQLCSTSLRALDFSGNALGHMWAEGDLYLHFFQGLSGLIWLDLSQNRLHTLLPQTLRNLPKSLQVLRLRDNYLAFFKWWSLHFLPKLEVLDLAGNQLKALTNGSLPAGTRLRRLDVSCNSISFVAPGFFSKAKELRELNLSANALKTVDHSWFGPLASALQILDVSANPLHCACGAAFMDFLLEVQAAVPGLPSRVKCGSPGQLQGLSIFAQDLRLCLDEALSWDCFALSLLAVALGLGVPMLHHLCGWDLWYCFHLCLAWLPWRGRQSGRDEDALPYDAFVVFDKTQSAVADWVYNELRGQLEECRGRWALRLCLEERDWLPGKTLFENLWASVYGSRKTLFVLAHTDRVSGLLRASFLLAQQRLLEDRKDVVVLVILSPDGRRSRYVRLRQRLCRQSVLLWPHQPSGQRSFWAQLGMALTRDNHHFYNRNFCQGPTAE
Outline: (§1)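 Cells seeded at 15000 (TLR7), 20,000 (TLR8) or 25,000 (TLR9) per well; compound 0.05 nM–50 μM, 30 min RT pre-incubation. Agonists: gardiquimod 7.5 μM, R848 15.9 μM, ODN2006 5 nM respectively. 22 h, 37 °C; SEAP via HEK-Blue Detection; % inhibition vs agonist+DMSO and known-inhibitor wells.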

human TLR7 = target: T2, human TLR7 (Homo sapiens, UniProt Q9NYK1); test: TLR7 inhibition reporter assay (HEK-Blue cells, secreted embryonic alkaline phosphatase reporter); conditions: HEK-Blue cells overexpressing human TLR7, stimulated with gardiquimod 7.5 μM; read-out: TLR 7 IC50
T2 construct: host or cells: HEK-Blue cells (HEK293-derived reporter line)
T2 sequence (Q9NYK1 27-1049): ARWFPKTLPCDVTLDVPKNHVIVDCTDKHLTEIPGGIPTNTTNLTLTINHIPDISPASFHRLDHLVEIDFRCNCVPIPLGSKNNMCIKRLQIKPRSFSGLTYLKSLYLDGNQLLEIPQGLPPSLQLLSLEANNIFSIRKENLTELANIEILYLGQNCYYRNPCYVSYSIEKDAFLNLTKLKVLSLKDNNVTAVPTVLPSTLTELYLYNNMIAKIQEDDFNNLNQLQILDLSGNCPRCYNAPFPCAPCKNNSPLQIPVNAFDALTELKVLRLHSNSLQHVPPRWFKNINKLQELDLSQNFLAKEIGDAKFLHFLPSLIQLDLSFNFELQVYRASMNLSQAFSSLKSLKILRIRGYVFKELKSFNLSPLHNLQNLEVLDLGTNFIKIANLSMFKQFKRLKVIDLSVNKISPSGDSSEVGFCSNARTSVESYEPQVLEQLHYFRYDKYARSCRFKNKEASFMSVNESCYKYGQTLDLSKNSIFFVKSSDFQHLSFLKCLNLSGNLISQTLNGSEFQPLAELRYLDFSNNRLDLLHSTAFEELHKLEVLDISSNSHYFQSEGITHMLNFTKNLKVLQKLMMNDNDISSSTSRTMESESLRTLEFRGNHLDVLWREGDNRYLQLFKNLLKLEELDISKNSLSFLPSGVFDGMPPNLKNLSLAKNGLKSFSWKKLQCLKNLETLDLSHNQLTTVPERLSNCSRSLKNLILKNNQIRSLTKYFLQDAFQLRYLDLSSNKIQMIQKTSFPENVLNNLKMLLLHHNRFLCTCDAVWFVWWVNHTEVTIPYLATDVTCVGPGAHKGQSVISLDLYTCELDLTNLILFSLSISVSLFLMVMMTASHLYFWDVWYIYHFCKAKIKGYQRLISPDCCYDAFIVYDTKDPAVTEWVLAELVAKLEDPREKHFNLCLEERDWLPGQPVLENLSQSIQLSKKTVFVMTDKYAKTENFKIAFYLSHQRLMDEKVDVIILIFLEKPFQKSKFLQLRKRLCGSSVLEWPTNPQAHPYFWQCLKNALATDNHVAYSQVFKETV
Outline: as §1

human TLR8 = target: T3, human TLR8 (Homo sapiens, UniProt Q9NR97); test: TLR8 inhibition reporter assay (HEK-Blue cells, secreted embryonic alkaline phosphatase reporter); conditions: HEK-Blue cells overexpressing human TLR8, stimulated with R848 15.9 μM; read-out: TLR 8 IC50
T3 construct: host or cells: HEK-Blue cells (HEK293-derived reporter line)
T3 sequence (Q9NR97 27-1041): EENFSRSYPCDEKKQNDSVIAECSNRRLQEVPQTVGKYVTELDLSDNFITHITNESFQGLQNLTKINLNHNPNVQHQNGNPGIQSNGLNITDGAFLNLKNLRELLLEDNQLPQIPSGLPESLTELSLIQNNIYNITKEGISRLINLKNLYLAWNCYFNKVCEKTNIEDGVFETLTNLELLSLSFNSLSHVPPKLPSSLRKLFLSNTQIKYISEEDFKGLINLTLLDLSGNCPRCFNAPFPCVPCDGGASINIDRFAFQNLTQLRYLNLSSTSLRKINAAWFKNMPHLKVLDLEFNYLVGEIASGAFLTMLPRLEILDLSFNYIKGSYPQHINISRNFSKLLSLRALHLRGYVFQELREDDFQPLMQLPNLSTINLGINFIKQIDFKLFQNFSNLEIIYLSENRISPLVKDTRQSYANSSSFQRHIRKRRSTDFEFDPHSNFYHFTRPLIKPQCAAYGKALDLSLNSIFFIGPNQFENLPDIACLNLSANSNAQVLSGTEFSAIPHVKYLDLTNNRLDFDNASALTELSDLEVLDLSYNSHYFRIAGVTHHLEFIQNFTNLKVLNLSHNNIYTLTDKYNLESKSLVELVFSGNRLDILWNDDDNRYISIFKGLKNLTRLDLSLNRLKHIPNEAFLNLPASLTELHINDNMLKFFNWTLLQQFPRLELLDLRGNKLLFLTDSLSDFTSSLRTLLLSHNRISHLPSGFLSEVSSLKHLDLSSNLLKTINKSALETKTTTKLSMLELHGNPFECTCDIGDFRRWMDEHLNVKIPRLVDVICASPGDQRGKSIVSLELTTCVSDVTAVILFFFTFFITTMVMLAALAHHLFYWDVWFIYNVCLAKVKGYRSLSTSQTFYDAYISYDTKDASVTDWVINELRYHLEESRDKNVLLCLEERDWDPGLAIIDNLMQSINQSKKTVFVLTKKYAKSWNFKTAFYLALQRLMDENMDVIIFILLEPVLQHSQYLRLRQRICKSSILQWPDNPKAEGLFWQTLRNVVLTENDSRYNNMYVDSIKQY
Outline: as §1

[1] = HEK-Blue cells overexpressing human TLR9, stimulated with ODN2006 5 nM, 22 hour incubation, reporter readout
[2] = HEK-Blue cells overexpressing human TLR9, stimulated with ODN2006 5 nM, read-out: TLR 9 IC50
[3] = HEK-Blue human TLR9 reporter cells

Row | IC50 (human TLR9; [1]) [nM] | IC50 (human TLR9; [2]) [nM] | IC50 (human TLR7) [nM] | IC50 (human TLR8) [nM] | IC50 (human TLR9) [nM] | IC50 (human TLR9; [3]) [nM] | SMILES
1 | 150 | 149 | 2300 | 46000 | – | – | CCn1c(-c2ccc(OC)c(OC)c2)nc2ccc(C3CCN(C4CCN(CC(C)C)CC4)CC3)cc21 [Example 40, 2-(3,4-dimethoxyphenyl)-1-ethyl-6-(1′-isobutyl-[1,4′-bipiperidin]-4-yl)-1H-benzo[d]imidazole]
2 | – | 61 | 19900 | > 25000 | 61 | – | COCCN1C2CCC1CC(N1CCC(c3cc(C)c4nc(-c5ccc(S(C)(=O)=O)cc5)n(C)c4c3)CC1)C2 (single isomer, unassigned) [Example 162, 6-(1-(8-(2-methoxyethyl)-8-azabicyclo[3.2.1]octan-3-yl)piperidin-4-yl)-1,4-dimethyl-2-(4-(methylsulfonyl)phenyl)-1H-benzo[d]imidazole]
3 | – | 1220 | 19500 | > 50000 | 1200 | – | Cn1c(-c2ccc(S(C)(=O)=O)cc2)nc2c(F)cc(C3CCN(C4CCN(C5COC5)CC4)CC3)cc21 [Example 279, 4-fluoro-1-methyl-2-(4-(methylsulfonyl)phenyl)-6-(1′-(oxetan-3-yl)-[1,4′-bipiperidin]-4-yl)-1H-benzo[d]imidazole]
4 | – | 58 | 3000 | > 50000 | – | 58 | Cn1c(-c2ccc(S(C)(=O)=O)cc2)nc2c(F)cc(C3CCN(C4CCCN(CC5CC5)CC4)CC3)cc21 (single isomer, unassigned) [Example 298, 6-(1-(1-(cyclopropylmethyl)azepan-4-yl)piperidin-4-yl)-4-fluoro-1-methyl-2-(4-(methylsulfonyl)phenyl)-1H-benzo[d]imidazole]
5 | 140 | 136 | 1600 | 900 | – | – | CS(=O)(=O)c1ccc(-c2nc3c(F)cc(-c4ccc(CN5CCC(N6CCCC6)CC5)cc4)cc3n2C2CC2)cc1 [Example 408, 1-cyclopropyl-4-fluoro-2-(4-(methylsulfonyl)phenyl)-6-(4-((4-(pyrrolidin-1-yl)piperidin-1-yl)methyl)phenyl)-1H-benzo[d]imidazole]
6 | – | 58 | 29000 | > 50000 | 58 | – | Cn1c(-c2ccc(S(C)(=O)=O)cc2)nc2cc(F)c(C3CCN(C4CC5CCC(C4)N5C4CCC4)CC3)cc21 (stereo not shown) [Example 233, 6-(1-(8-cyclobutyl-8-azabicyclo[3.2.1]octan-3-yl)piperidin-4-yl)-5-fluoro-1-methyl-2-(4-(methylsulfonyl)phenyl)-1H-benzo[d]imidazole]
7 | – | 840 | > 50000 | > 50000 | 840 | – | Cn1c(-c2ccc(S(C)(=O)=O)cc2)nc2cc(C3CCN(C4CCN(C5COC5)CC4)CC3)cc(F)c21 [Example 206, 7-fluoro-1-methyl-2-(4-(methylsulfonyl)phenyl)-5-(1′-(oxetan-3-yl)-[1,4′-bipiperidin]-4-yl)-1H-benzo[d]imidazole]
8 | – | 1300 | > 25000 | > 25000 | 1300 | – | COc1ccc(-c2nc3c(C)cc(C4CCN(C5CC6CCC(C5)N6C5COC5)CC4)cc3n2C)cc1OC (single isomer, unassigned) [Example 165, 2-(3,4-dimethoxyphenyl)-1,4-dimethyl-6-(1-(8-(oxetan-3-yl)-8-azabicyclo[3.2.1]octan-3-yl)piperidin-4-yl)-1H-benzo[d]imidazole]
9 | – | 154 | 7900 | > 50000 | 150 | – | Cn1c(-c2ccc(S(C)(=O)=O)cc2)nc2ccc(C3CCN(C4CCN(CC5CC5)CC4)CC3)c(F)c21 [Example 261, 6-(1′-(cyclopropylmethyl)-[1,4′-bipiperidin]-4-yl)-7-fluoro-1-methyl-2-(4-(methylsulfonyl)phenyl)-1H-benzo[d]imidazole]
10 | – | 20 | 2900 | > 50000 | – | 20 | Cn1c(-c2ccc(S(C)(=O)=O)cc2)nc2c(F)cc(C3CCN(C4CCCN(C5CCOCC5)CC4)CC3)cc21 (stereo not shown) [Example 300, 4-fluoro-1-methyl-2-(4-(methylsulfonyl)phenyl)-6-(1-(1-(tetrahydro-2H-pyran-4-yl)azepan-4-yl)piperidin-4-yl)-1H-benzo[d]imidazole]
11 | 24 | – | 2600 | > 50000 | – | – | COc1ccc(-c2nc3c(C)cc(C4C[C@H]5CC[C@@H](C4)N5C4CCN(C(C)C)CC4)cc3n2C)cc1OC (mixture of isomers) [Example 21, 2-(3,4-dimethoxyphenyl)-6-(8-(1-isopropylpiperidin-4-yl)-8-azabicyclo[3.2.1]octan-3-yl)-1,4-dimethyl-1H-benzo[d]imidazole]
